Results as given in US9603364B2 (Dow AgroSciences LLC, priority 2013, dated 2017).

How the values were obtained:
Assay in all cases: General post-emergent herbicidal activity, foliar application
Assay type in all cases: in vivo
Oryza sativa L. (rice) = conditions: Oryza sativa, 336 h, scored after 14 days, read-out: % Visual Growth Reduction ORYSA; for plant injury at 70 g/ha: 70 g ai/ha; for plant injury at 140 g/ha: 140 g ai/ha; for plant injury at 280 g/ha: 280 g ai/ha
Procedure, shortened: (§1)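 Compounds in acetone/DMSO (97:3) diluted into aqueous spray with isopropanol, Atplus 411F crop oil and Triton X-155; top rate plus 1/2×–1/16× serial rates applied to foliage, solvent blank as control. Greenhouse, sub-irrigated; visual injury versus untreated plants scored 0–100% (100 = complete kill) after 14 days.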

Zea mays L. (corn) = conditions: 336 h, scored after 14 days, read-out: % Visual Growth Reduction ZEAMX; for plant injury at 70 g/ha: 70 g ai/ha; for plant injury at 140 g/ha: 140 g ai/ha; for plant injury at 280 g/ha: 280 g ai/ha
Procedure, shortened: as §1

[1] = system: Amaranthus retroflexus L. (pigweed, redroot); conditions: for GR80 Value AMARE: calculated by probit analysis, dose for 80% visual injury, may be extrapolated; for pest or weed control at 70 g/ha: 70 g ai/ha; for pest or weed control at 140 g/ha: 140 g ai/ha; for pest or weed control at 280 g/ha: 280 g ai/ha
Procedure, shortened: (§2)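 Compounds in acetone/DMSO 97:3 were diluted into aqueous spray mix with isopropanol, crop oil concentrate and Triton X-155, then serially diluted to 1/2×–1/16× of the top rate and sprayed on foliage. Plants were kept in greenhouse with sub-irrigation. Injury was scored visually (0–100%) at 14 days; GR20/GR50/GR80 came from probit analysis.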

[2] = system: Echinochloa crus-galli (L.) Beauv. (barnyardgrass); conditions: for GR80 Value ECHCG: calculated by probit analysis, dose for 80% visual injury, may be extrapolated; for pest or weed control at 70 g/ha: 70 g ai/ha; for pest or weed control at 140 g/ha: 140 g ai/ha; for pest or weed control at 280 g/ha: 280 g ai/ha
Procedure, shortened: as §2

[3] = system: Viola tricolor L. (pansy); conditions: for GR80 Value VIOTR: calculated by probit analysis, dose for 80% visual injury, may be extrapolated; for pest or weed control at 70 g/ha: 70 g ai/ha; for pest or weed control at 140 g/ha: 140 g ai/ha
Procedure, shortened: as §2

[4] = system: Euphorbia heterophylla L. (poinsettia, wild); conditions: for GR80 Value EPHHL: calculated by probit analysis, dose for 80% visual injury, may be extrapolated; for pest or weed control at 70 g/ha: 70 g ai/ha; for pest or weed control at 140 g/ha: 140 g ai/ha; for pest or weed control at 280 g/ha: 280 g ai/ha
Procedure, shortened: as §2

[5] = system: Helianthus annuus L. (sunflower, common); conditions: for GR80 Value HELAN: calculated by probit analysis, dose for 80% visual injury, may be extrapolated; for pest or weed control at 70 g/ha: 70 g ai/ha; for pest or weed control at 140 g/ha: 140 g ai/ha; for pest or weed control at 280 g/ha: 280 g ai/ha
Procedure, shortened: as §2

[6] = system: Chenopodium album L. (lambsquarters, common); conditions: for GR80 Value CHEAL: calculated by probit analysis, dose for 80% visual injury, may be extrapolated; for pest or weed control at 70 g/ha: 70 g ai/ha; for pest or weed control at 140 g/ha: 140 g ai/ha; for pest or weed control at 280 g/ha: 280 g ai/ha
Procedure, shortened: as §2

[7] = Amaranthus retroflexus, 336 h, foliar post-emergent, scored after 14 days, read-out: % Visual Growth Reduction AMARE
[8] = Echinochloa crus-galli, 336 h, foliar post-emergent, scored after 14 days, read-out: % Visual Growth Reduction ECHCG
[9] = Viola tricolor, 336 h, foliar post-emergent, scored after 14 days, read-out: % Visual Growth Reduction VIOTR
[10] = Euphorbia heterophylla, 336 h, foliar post-emergent, scored after 14 days, read-out: % Visual Growth Reduction EPHHL
[11] = Helianthus annuus, 336 h, foliar post-emergent, scored after 14 days, read-out: % Visual Growth Reduction HELAN
[12] = Chenopodium album, 336 h, foliar post-emergent, scored after 14 days, read-out: % Visual Growth Reduction CHEAL

COC(=O)c1nc(CF)cc(N)c1Cl [Compound F26, methyl 4-amino-3-chloro-6-(fluoromethyl)picolinate]
plant injury at 37 g/ha (Oryza sativa L. (rice); 37 g ai/ha): 0%
plant injury at 74 g/ha (Oryza sativa L. (rice); 74 g ai/ha): 0%
plant injury at 148 g/ha (Oryza sativa L. (rice); 148 g ai/ha): 0%
plant injury at 37 g/ha (Zea mays L. (corn); 37 g ai/ha): 0%
plant injury at 74 g/ha (Zea mays L. (corn); 74 g ai/ha): 0%
plant injury at 148 g/ha (Zea mays L. (corn); 148 g ai/ha): 10%
pest or weed control at 37 g/ha ([1]; Amaranthus retroflexus, 336 h, 37 g ai/ha, foliar post-emergent, scored after 14 days, read-out: % Visual Growth Reduction AMARE): 0%
pest or weed control at 74 g/ha ([1]; Amaranthus retroflexus, 336 h, 74 g ai/ha, foliar post-emergent, scored after 14 days, read-out: % Visual Growth Reduction AMARE): 80%
pest or weed control at 148 g/ha ([1]; Amaranthus retroflexus, 336 h, 148 g ai/ha, foliar post-emergent, scored after 14 days, read-out: % Visual Growth Reduction AMARE): 90%
GR80 Value AMARE [1]: 104 g ai/ha
pest or weed control at 37 g/ha ([2]; Echinochloa crus-galli, 336 h, 37 g ai/ha, foliar post-emergent, scored after 14 days, read-out: % Visual Growth Reduction ECHCG): 0%
pest or weed control at 74 g/ha ([2]; Echinochloa crus-galli, 336 h, 74 g ai/ha, foliar post-emergent, scored after 14 days, read-out: % Visual Growth Reduction ECHCG): 0%
pest or weed control at 148 g/ha ([2]; Echinochloa crus-galli, 336 h, 148 g ai/ha, foliar post-emergent, scored after 14 days, read-out: % Visual Growth Reduction ECHCG): 20%
GR80 Value ECHCG [2]: >148 g ai/ha
pest or weed control at 37 g/ha ([3]; Viola tricolor, 336 h, 37 g ai/ha, foliar post-emergent, scored after 14 days, read-out: % Visual Growth Reduction VIOTR): 10%
pest or weed control at 74 g/ha ([3]; Viola tricolor, 336 h, 74 g ai/ha, foliar post-emergent, scored after 14 days, read-out: % Visual Growth Reduction VIOTR): 15%
pest or weed control at 148 g/ha ([3]; Viola tricolor, 336 h, 148 g ai/ha, foliar post-emergent, scored after 14 days, read-out: % Visual Growth Reduction VIOTR): 70%
GR80 Value VIOTR [3]: 223 g ai/ha
pest or weed control at 37 g/ha ([4]; Euphorbia heterophylla, 336 h, 37 g ai/ha, foliar post-emergent, scored after 14 days, read-out: % Visual Growth Reduction EPHHL): 90%
pest or weed control at 74 g/ha ([4]; Euphorbia heterophylla, 336 h, 74 g ai/ha, foliar post-emergent, scored after 14 days, read-out: % Visual Growth Reduction EPHHL): 100%
pest or weed control at 148 g/ha ([4]; Euphorbia heterophylla, 336 h, 148 g ai/ha, foliar post-emergent, scored after 14 days, read-out: % Visual Growth Reduction EPHHL): 100%
GR80 Value EPHHL [4]: 38.8 g ai/ha
pest or weed control at 37 g/ha ([5]; Helianthus annuus, 336 h, 37 g ai/ha, foliar post-emergent, scored after 14 days, read-out: % Visual Growth Reduction HELAN): 70%
pest or weed control at 74 g/ha ([5]; Helianthus annuus, 336 h, 74 g ai/ha, foliar post-emergent, scored after 14 days, read-out: % Visual Growth Reduction HELAN): 90%
pest or weed control at 148 g/ha ([5]; Helianthus annuus, 336 h, 148 g ai/ha, foliar post-emergent, scored after 14 days, read-out: % Visual Growth Reduction HELAN): 90%
GR80 Value HELAN [5]: 48.3 g ai/ha
pest or weed control at 37 g/ha ([6]; Chenopodium album, 336 h, 37 g ai/ha, foliar post-emergent, scored after 14 days, read-out: % Visual Growth Reduction CHEAL): 90%
pest or weed control at 74 g/ha ([6]; Chenopodium album, 336 h, 74 g ai/ha, foliar post-emergent, scored after 14 days, read-out: % Visual Growth Reduction CHEAL): 90%
pest or weed control at 148 g/ha ([6]; Chenopodium album, 336 h, 148 g ai/ha, foliar post-emergent, scored after 14 days, read-out: % Visual Growth Reduction CHEAL): 90%
GR80 Value CHEAL [6]: 29 g ai/ha

Nc1cc(C(F)F)nc(C(=O)O)c1Cl [Compound F27]
plant injury at 70 g/ha (Oryza sativa L. (rice)): 13%
plant injury at 140 g/ha (Oryza sativa L. (rice)): 15%
plant injury at 280 g/ha (Oryza sativa L. (rice)): 20%
plant injury at 35 g/ha (Zea mays L. (corn); 35 g ai/ha): 20%
plant injury at 70 g/ha (Zea mays L. (corn)): 50%
plant injury at 140 g/ha (Zea mays L. (corn)): 60%
plant injury at 280 g/ha (Zea mays L. (corn)): 60%
pest or weed control at 35 g/ha ([1]; Amaranthus retroflexus, 336 h, 35 g ai/ha, foliar post-emergent, scored after 14 days, read-out: % Visual Growth Reduction AMARE): 90%
pest or weed control at 70 g/ha [1, 7]: 90%
pest or weed control at 140 g/ha [1, 7]: 100%
pest or weed control at 280 g/ha [1, 7]: 100%
GR80 Value AMARE [1]: 17.5 g ai/ha
pest or weed control at 35 g/ha ([2]; Echinochloa crus-galli, 336 h, 35 g ai/ha, foliar post-emergent, scored after 14 days, read-out: % Visual Growth Reduction ECHCG): 0%
pest or weed control at 70 g/ha [2, 8]: 65%
pest or weed control at 140 g/ha [2, 8]: 80%
pest or weed control at 280 g/ha [2, 8]: 80%
GR80 Value ECHCG [2]: 187 g ai/ha
pest or weed control at 35 g/ha ([3]; Viola tricolor, 336 h, 35 g ai/ha, foliar post-emergent, scored after 14 days, read-out: % Visual Growth Reduction VIOTR): 80%
pest or weed control at 70 g/ha [3, 9]: 100%
pest or weed control at 140 g/ha [3, 9]: 100%
GR80 Value VIOTR [3]: 59.2 g ai/ha
pest or weed control at 35 g/ha ([4]; Euphorbia heterophylla, 336 h, 35 g ai/ha, foliar post-emergent, scored after 14 days, read-out: % Visual Growth Reduction EPHHL): 90%
pest or weed control at 70 g/ha [4, 10]: 100%
pest or weed control at 140 g/ha [4, 10]: 100%
pest or weed control at 280 g/ha [4, 10]: 100%
GR80 Value EPHHL [4]: <17.5 g ai/ha
pest or weed control at 35 g/ha ([5]; Helianthus annuus, 336 h, 35 g ai/ha, foliar post-emergent, scored after 14 days, read-out: % Visual Growth Reduction HELAN): 90%
pest or weed control at 70 g/ha [5, 11]: 100%
pest or weed control at 140 g/ha [5, 11]: 100%
pest or weed control at 280 g/ha [5, 11]: 100%
GR80 Value HELAN [5]: <17.5 g ai/ha
pest or weed control at 35 g/ha ([6]; Chenopodium album, 336 h, 35 g ai/ha, foliar post-emergent, scored after 14 days, read-out: % Visual Growth Reduction CHEAL): 100%
pest or weed control at 70 g/ha [6, 12]: 100%
pest or weed control at 140 g/ha [6, 12]: 100%
pest or weed control at 280 g/ha [6, 12]: 100%
GR80 Value CHEAL [6]: <17.5 g ai/ha

COC(=O)c1nc(C(F)CF)cc(N)c1Cl (stereo not drawn) [Compound F28, methyl 4-amino-3-chloro-6-(1,2-difluoroethyl)picolinate]
plant injury at 70 g/ha (Oryza sativa L. (rice)): 0%
plant injury at 140 g/ha (Oryza sativa L. (rice)): 0%
plant injury at 280 g/ha (Oryza sativa L. (rice)): 0%
plant injury at 70 g/ha (Zea mays L. (corn)): 10%
plant injury at 140 g/ha (Zea mays L. (corn)): 10%
plant injury at 280 g/ha (Zea mays L. (corn)): 10%
pest or weed control at 70 g/ha [1, 7]: 80%
pest or weed control at 140 g/ha [1, 7]: 100%
pest or weed control at 280 g/ha [1, 7]: 100%
GR80 Value AMARE [1]: 66.4 g ai/ha
pest or weed control at 70 g/ha [2, 8]: 0%
pest or weed control at 140 g/ha [2, 8]: 0%
pest or weed control at 280 g/ha [2, 8]: 0%
GR80 Value ECHCG [2]: >280 g ai/ha
pest or weed control at 70 g/ha [3, 9]: 15%
pest or weed control at 140 g/ha [3, 9]: 75%
pest or weed control at 280 g/ha ([3]; Viola tricolor, 336 h, 280 g ai/ha, foliar post-emergent, scored after 14 days, read-out: % Visual Growth Reduction VIOTR): 90%
GR80 Value VIOTR [3]: 197 g ai/ha
pest or weed control at 70 g/ha [4, 10]: 80%
pest or weed control at 140 g/ha [4, 10]: 100%
pest or weed control at 280 g/ha [4, 10]: 100%
GR80 Value EPHHL [4]: 73 g ai/ha
pest or weed control at 70 g/ha [5, 11]: 80%
pest or weed control at 140 g/ha [5, 11]: 90%
pest or weed control at 280 g/ha [5, 11]: 95%
GR80 Value HELAN [5]: 52.9 g ai/ha
pest or weed control at 70 g/ha [6, 12]: 90%
pest or weed control at 140 g/ha [6, 12]: 80%
pest or weed control at 280 g/ha [6, 12]: 90%
GR80 Value CHEAL [6]: 17.5 g ai/ha
